The source of these data is patent publication US20100099719A1, “COMPOSITION AND METHOD FOR TREATING PROTEINURIA” (DIEREPHARMA, INC., priority 2008, published 2010).

One test concerns p38. Description: LPS-induced p38 activation in RAW264.7 macrophages (Western blot, phospho-p38). Format: cell-based, mouse. To be noted: RAW264.7 cells pretreated 100 and 500 μg/ml, 4 h; LPS 10 ng/ml, 30 min. How it is done: Mouse macrophage RAW264.7 cells were pretreated with AKF-PD (100 and 500 μg/ml, 4 h) or PFD (100 and 500 μg/ml, 4 h) and then exposed to LPS (10 ng/ml, 30 min). Total cell lysates were processed by SDS-PAGE and membranes blotted with a phosphospecific p38 and normalized with p38.
The MAPK family of proteins comprises of three-tiered cascades of Erk1/2, p38, and JNK. The p38 kinase is activated by phosphorylation of a conserved Thr-Gly-Tyr motif in the activation loop. The activated p38 is then able to phosphorylate a wide variety of targets in the cytoplasm and nucleus, resulting in cellular responses such as apoptosis, inflammation, and fibrosis. We first analyzed the anti-inflammatory properties of AKF-PD in p38 signaling in lipopolysaccharide (LPS)-stimulated mouse macrophages RAW264.7 cells. Cells are pre-treated with AKF-PD or pirfenidone (PFD) for 4 hours and then stimulated by treatment with LPS. […] No effects on total p38 protein levels were observed showing that AKF-PD and PFD have no effect on protein stability. […] The potential upstream targets for AKF-PD include upstream kinases MAPKK3 (MKK3) and MAPKK6 (MKK6).

Another test relates to TNF-α mRNA. Description: LPS-stimulated TNF-α mRNA synthesis in RAW264.7 macrophages (real time PCR). Format: cell-based, mouse. The note with it: LPS 10 ng/ml 20 h; for inhibition of LPS-stimulated TNF-α mRNA synthesis: dose of 500 μg/ml; for inhibition on LPS-stimulated TNF-α mRNA synthesis: pre-treated 4 h at 10, 100, 500 μg/ml. The protocol: Mouse macrophage RAW264.7 cells were pre-treated with AKF-PD or PFD for 4 hours at the following doses: 0, 10 μg/ml, 100 μg/ml, and 500 μg/ml. Cells are then stimulated by treatment with LPS at 10 ng/ml for 20 hours. Expression of TNF-α mRNA is assayed by a quantitative real time PCR analysis using the TaqMan PCR core reagent kit (Applied Biosystems). TNF-α gene expression in the control non-treated cells was taken as 1 and regarded as control. All the other values were expressed as fold increase of the control. The mouse beta actin gene was used as endogenous control. Each column with error bar represents the mean mRNA level±SD of duplicate samples. Statistical comparisons for all three AKF-PD doses relative to control indicate p<0.01; PFD at the doses of 100 and 500 μg/ml relative to control indicate P<0.01.
We next investigated the effect of AKF-PD on TNF-α transcription.
Background: Real-time PCR tracks product formation cycle by cycle.

A further test concerns TNF-α. As to the kind of experiment: LPS-stimulated TNF-α protein synthesis and secretion in RAW264.7 cells (ELISA). The note with it: LPS 100 ng/ml 8 h; for inhibition at 300 µg/mL: dose of 300 μg/ml. Format: cell-based, mouse. How it is done:
RAW264.7 cells were pre-treated with AKF-PD for 4 hours at the following doses: 0, 30 μg/ml, 100 μg/ml, and 300 μg/ml. Cells were then stimulated by the treatment with LPS at 100 ng/ml for 8 hours. Cell lysate was prepared from the harvested cells. Media from the cell culture were collected, concentrated 10-fold. Both cell lysate (B) and media (A) were subjected to ELISA assay (OptEIA™) specific for mouse TNF-α according to the manufacturer's instructions (BD Biosciences). Each column with error bar represents the average of triplicate TNF-α assay results and the standard deviation (SD). Statistical comparisons for AKF-PD treated cells relative to the controls indicate P<0.001 for secreted levels (A) at all three doses; and P<0.01 for cellular levels (B) at doses of 100 and 300 μg/ml, respectively.
The effect of AKF-PD on TNF-α protein synthesis and secretion was analyzed in LPS-stimulated RAW264.7 cells. Cells were pretreated with AKF-PD and then stimulated by LPS. Both secreted and cellular levels of TNF-α protein were determined. […] Therefore, the exposure of RAW264.7 cells to AKF-PD exerted a significant and dose-dependent suppression of levels of both cell-associated and secreted TNF-α protein.
(In general: In an ELISA, binding on a coated surface is turned into a signal by an enzyme label.)

Test [1] has as its system streptozotocin-induced diabetic rats. Description: Streptozotocin-induced diabetic nephropathy in rats. The class given is in vivo, Sprague-Dawley rats. How it is done:
Diabetic kidney disease in the rat was induced by streptozotocin (STZ) to test the effectiveness of 5-methyl-2(1H)-pyridone (AKF-PD) in preserving kidney function by reducing the level of proteinuria.
Diabetic nephropathy was induced in Sprague-Dawley rats with a single intravenous injection of STZ (45 mg/kg). Streptozotocin was injected in a single dose of 45 mg/kg, i.v., to rats (Male Sprague-Dawley rats (200-250 g). Age-matched control rats received citrate buffer and were used in parallel with diabetic animals. Two days after STZ injection, plasma glucose levels were measured. Rats having plasma glucose levels>250 mg/dL after 4 weeks were selected for the study. Control and diabetic rats were divided into two groups, consisting of 6 animals each. AKF-PD was suspended in 0.5% sodium carboxy methylcellulose (CMC). From 4 to 8 weeks after the initial STZ injection, the first group of control animals received vehicle, and the second group received a suspension of AKF-PD (500 mg/kg per day) orally. Similarly, one group of diabetic rats received vehicle and the second group received AKF-PD (500 mg/kg per day). At the end of 8th week, rats were kept individually in metabolic cages for 24 h to collect urine for the measurements. Renal function was assessed by measuring plasma and urine levels of creatinine and urea and urine albumin excretion. Plasma glucose levels were also measured at 4 weeks and at the end of the experiment to investigate the effect of AKF-PD on glucose levels. Urinary proteins were measured by Bio-Rad protein assay (Bio-Rad, Hercules, Calif.). Blood urea nitrogen and creatinine levels were measured using Beckman analyzers (BUN Analyzer II, and Creatinine Analyzer II Beckman Instruments Inc., Brea, Calif.).

In another test the test system is rat UUO model. Description: Unilateral ureteral obstruction (UUO) model, tubulointerstitial injury score. The class given is in vivo, SD rats. To be noted: UUO rats; for Tubulointerstitial injury score (TIS): 500 mg/kg/d by gavage. How it is done:
Kidney damage and fibrosis were induced by Unilateral Ureteral Obstruction in rat. The reno-protective effect of AKF-PD was evaluated in the rat UUO model.
Fixed tissues were dehydrated in graded alcohol and embedded in paraffin. Sections were stained with hematoxylin & eosin (HE) for general histology. Injury score was evaluated. On Day 7, the kidneys of rats subjected to ureteral obstruction developed a conspicuous tubulointerstitial injury characterized by tubular dilatation and atrophy, interstitial inflammation, and a marked interstitial fibrosis. The damage was more prominent on Day 15. Renal injury was ameliorated after treatments with AKF-PD as indicated by the lower tubulointerstitial injury scores and interstitial fibrosis expansion of these groups, with P<0.05 for all comparisons (Table 2).
Table 2. Comparison of histological scores for interstitial compartment. Eight weeks old male SD rats (180 g ˜220 g) were randomly divided into sham surgical group, disease model UUO group, and AKF-PD (500 mg/kg/d) group. […] The animals of the sham surgical group experienced the same surgical procedure except the ligation step. AKF-PD was administrated by gavage from one day prior to the procedure to 15 days post surgical procedure. Normal saline was administrated in a similar fashion to the rats in the groups of disease model and sham surgical. The animals were sacrificed 15 days after surgical procedure and their left kidney were removed for pathological (HE staining) examination. Histological scoring for interstitial compartment was done according to Radford's method (Predicting renal outcome in IgA nephropathy. J. Am. Soc. Nephrology, 1997; 8:199-207).

In the next test the test system is TGF-β. Description: TGF-β protein expression in kidney of rat UUO model (Western blot, densitometry). The class given is in vivo. The note with it: obstructed kidney. The text has this: A. Western analysis of TGF-β protein expression. Two rats were sacrificed from groups of control sham operated, UUO, and UUO+AKF-PD at day 7 and day 15. Total protein was extracted from the kidney samples and subjected to Western analysis of TGF-β. The protein loading was normalized with actin. Lane 1, control sham at day 7; lane 2, control sham at day 15; lane 3, UUO at day 7; lane 4, UUO+AKF-PD at day 7; lane 5, UUO at day 15; lane 6, UUO+AKF-PD at day 15. B. Comparison of the intensity of bands on a Western blot by densitometry. The bands were scanned by densitometer and expressed as a fold increase over control sham operated rat at day 7, which was taken as 1.
TGF-β is a pro inflammatory cytokine and its overproduction plays critical role in tissue fibrosis. Using UUO model, we analyzed the effect of AKF-PD on TGF-β protein expression by Western blot. […] Densitometry analyses of the intensity of the bands indicate that TGF-β protein expression in obstructed kidneys was increased by 4.9- and 6.5-fold than those in the Sham group on Days 7 and 15, respectively.

A further test has as its system rat renal fibroblasts. The note with it: in vitro; cited from earlier work.
Test [2] relates to patients with focal segmental glomerulosclerosis. To be noted: cited from earlier work.
Test [3] concerns mild chronic anti-GBM nephritis in rats. The note with it: rat model of nephritis; cited from earlier work.
The mark [4] stands for this setting: DN (diabetic) rats + AKF-PD 500 mg/kg per day p.o., 4 weeks, mean ± SEM (n = 6).

The structures appear in SMILES notation. Like-named read-outs stand apart in the source and are kept apart here.

The inhibition is the drop in the measured response relative to a control, in per cent. For `Cc1ccc(=O)n(-c2cccc(F)c2)c1` [AKF-PD, 1-(3′-Fluorophenyl)-5-Methyl-2(1H)-Pyridone], in the test on p38, the “LPS-induced p38 activation (phosphorylation)” value is on record as “significantly blocked” and the “total p38 protein levels” value is given as “No effects”. Besides, in the test on TNF-α mRNA, the “inhibition of LPS-stimulated TNF-α mRNA synthesis” value is on record as “Approximately 50%” and the “inhibition on LPS-stimulated TNF-α mRNA synthesis” value is reported as “dose-dependent inhibition”. Besides, the “inhibition on TNF-α protein levels” value in the test on TNF-α (30, 100, 300 μg/ml pre-treatment 4 h) was “dose-dependent inhibition”. Further, the inhibition at 100 µg/mL in the test with TNF-α (Mus musculus, dose of 100 μg/ml, read-out: inhibition of secreted levels of TNF-α) came to 64%. Besides, the inhibition at 300 µg/mL in the test with TNF-α (Mus musculus, read-out: inhibition of cellular levels of TNF-α) was ~50%. Besides, the inhibition at 300 µg/mL in the test with TNF-α (Mus musculus, read-out: inhibition of secreted levels of TNF-α) was determined as 89%. Also, in [1] (DN (diabetic) rats + AKF-PD 500 mg/kg per day p.o., 4 weeks, 24 h urine, mean ± SEM (n = 6)), the Urine output is listed as 15.25 ± 1.75 mL. Moreover, in [1] (setting [4]), the Blood urea nitrogen is given as 18.88 ± 1.50 mg/dL, the Serum creatinine amounted to 0.75 ± 0.13 mg/dL and the Urinary albumin excretion was determined as 6.10 ± 0.23 mg/dL. Besides, in [1] (diabetic rats, 500 mg/kg per day from 4 to 8 weeks), the “renal dysfunction in diabetic rats” value was “significantly attenuated”. In addition, in the test on rat UUO model (Day 7), the “Tubulointerstitial injury score (TIS)” value was 2.64 ± 0.79 #. Further, in the test on rat UUO model (Day 15), the “Tubulointerstitial injury score (TIS)” value was 3.82 ± 0.43 #. Besides, the “renal injury (tubulointerstitial injury scores and interstitial fibrosis expansion)” value in the test with rat UUO model (P<0.05) is “ameliorated”. The “reduction of TGF-β protein expression” value in the test on TGF-β (Day 7, UUO rats) was found to be 55%. For the same compound, the “reduction of TGF-β protein expression” value in the test on TGF-β (Day 15, UUO rats) was 71%. The “proliferation of rat renal fibroblasts” value in the test on rat renal fibroblasts is recorded as “inhibit the proliferation”.

In the case of `Cc1ccc(=O)n(-c2ccccc2)c1` [PFD, pirfenidone, reference compound], in the test on p38, the “LPS-induced p38 activation (phosphorylation)” value is listed as “significantly blocked” and the “total p38 protein levels” value is on record as “No effects”. In the test with TNF-α mRNA, the “inhibition of LPS-stimulated TNF-α mRNA synthesis” value is reported as “Approximately 50%” and the “inhibition on LPS-stimulated TNF-α mRNA synthesis” value is reported as “dose-dependent inhibition”. The effect on proteinuria entry in [2] (clinical data, open-label trial) is listed as “does not have any effect”. For the same compound, the “monthly deterioration in GFR (median)” value in [2] (with pirfenidone therapy, 18 patients, median of 13-month treatment, baseline period −0.61) was −0.45 ml/min per 1.73 m^2. Also, the urinary protein excretion result in [3] is “caused a decline”.
